Common to all, as to type: functional
For experiment [1], the system named is Candida albicans. Put plainly: Antifungal activity against Candida stellatoidea by microtiter-tube dilution method.
Experiment [2] relates to Cryptococcus neoformans. In words: Antifungal activity against Cryptococcus neoformans by microtiter-tube dilution method.
For experiment [3], the system named is Pichia kudriavzevii. Put plainly: Antifungal activity against Candida krusei by microtiter-tube dilution method.
Experiment [4] relates to Candida albicans. In words: Antifungal activity against Candida albicans by microtiter-tube dilution method.
Experiment [5] in a line: Uterocontractile activity in rat uterus assessed as contraction at 7.4 uM relative to acetylcholine.
Experiment [6] relates to Enterococcus faecalis. In words: Antibacterial activity against Enterococcus faecalis ATCC 29212 by microtiter-tube dilution method.
In experiment [7] the test system is Candida tropicalis. Put plainly: Antifungal activity against Candida tropicalis by microtiter-tube dilution method.
Experiment [8] relates to Escherichia coli. In words: Antibacterial activity against Escherichia coli ATCC 25922 by microtiter-tube dilution method.
Experiment [9] has as its system Pseudomonas aeruginosa. Put plainly: Antibacterial activity against Pseudomonas aeruginosa ATCC 27853 by microtiter-tube dilution method.
Experiment [10] concerns Kluyveromyces marxianus. Put plainly: Antifungal activity against Candida pseudotropicalis by microtiter-tube dilution method.
For experiment [11], the system named is Staphylococcus aureus. Put plainly: Antibacterial activity against Staphylococcus aureus ATCC 29213 by microtiter-tube dilution method.
Experiment [12] has as its system Candida parapsilosis. Put plainly: Antifungal activity against Candida parapsilosis by microtiter-tube dilution method. The following applies: Lodderomyces parapsilosis.
Experiment [13] is described as follows: Uterocontractile activity in rat uterus assessed as contraction at 8.6 uM relative to acetylcholine.
The nature of experiment [14]: Uterocontractile activity in rat uterus assessed as contraction at 6.5 uM relative to acetylcholine.
A short description of experiment [15]: Uterocontractile activity in rat uterus assessed as contraction at 7.5 uM relative to acetylcholine.
A short description of experiment [16]: Uterocontractile activity in rat uterus assessed as contraction at 20 uM relative to acetylcholine.
Experiment [17] in a line: Uterocontractile activity in rat uterus assessed as contraction at 6.4 uM relative to acetylcholine.
Experiment [18] is described as follows: Uterocontractile activity in rat uterus assessed as contraction at 19 uM relative to acetylcholine.

As usually defined, the MIC is the lowest concentration found to suppress growth. Low values mean a more susceptible organism, high ones a less susceptible organism.

The structures appear in SMILES notation. Converted amounts (≈) assume the structure as drawn.

For the compound `C[C@]1(C=O)CC[C@]23CO[C@@]4(CC[C@@H]5[C@@]6(C)CC[C@H](O[C@@H]7OC[C@H](O[C@@H]8O[C@H](CO)[C@@H](O)[C@H](O)[C@H]8O[C@@H]8OC[C@H](O)[C@H](O)[C@H]8O)[C@H](O)[C@H]7O[C@@H]7O[C@H](CO)[C@@H](O)[C@H](O)[C@H]7O)[C@@](C)(CO)[C@@H]6CC[C@@]5(C)[C@]4(C)C[C@H]2O)[C@@H]3C1` [CYCLACOUMIN], the minimum inhibitory concentration (MIC) in experiment [1] is 160 µg/mL (≈ 149 µM); in experiment [2] it was 80 µg/mL (≈ 74.3 µM); in experiment [3], > 320 µg/mL; in [4], 160 µg/mL (≈ 149 µM); in experiment [6] it was > 400 µg/mL; in experiment [7] it was 160 µg/mL (≈ 149 µM). In addition, the MIC in experiment [8] was > 400 µg/mL; in [9], > 400 µg/mL; in [10], 160 µg/mL (≈ 149 µM); in [11], > 400 µg/mL; in experiment [12], 80 µg/mL (≈ 74.3 µM). In [5], the Activity worked out at 58.2%.
For the compound `CC1(C)[C@@H](O[C@@H]2OC[C@H](O[C@@H]3O[C@H](CO)[C@@H](O)[C@H](O)[C@H]3O)[C@H](O)[C@H]2O[C@@H]2O[C@H](CO)[C@@H](O)[C@H](O)[C@H]2O)CC[C@]2(C)[C@H]3CC[C@]45OC[C@@]6(CC[C@](C)(C=O)C[C@H]64)[C@H](O)C[C@@]5(C)[C@]3(C)CC[C@@H]12` [CYCLAMINORIN], the MIC in experiment [1] is 160 µg/mL (≈ 172 µM); in experiment [2] it was 80 µg/mL (≈ 86.1 µM); in experiment [3], > 320 µg/mL; in experiment [4], 160 µg/mL (≈ 172 µM); in experiment [6], > 400 µg/mL; in experiment [7], 160 µg/mL (≈ 172 µM). Besides, the MIC was > 400 µg/mL in experiment [8]; > 400 µg/mL in experiment [9]; 160 µg/mL (≈ 172 µM) in experiment [10]; > 400 µg/mL in experiment [11]; 80 µg/mL (≈ 86.1 µM) in [12]. Moreover, the Activity in [13] was 46.2%.
In the case of `CC1(C)[C@@H](O[C@@H]2OC[C@H](O[C@@H]3O[C@H](CO)[C@@H](O)[C@H](O[C@@H]4O[C@H](CO)[C@@H](O)[C@H](O)[C@H]4O)[C@H]3O[C@@H]3OC[C@@H](O)[C@H](O)[C@H]3O)[C@H](O)[C@H]2O[C@@H]2O[C@H](CO)[C@@H](O)[C@H](O)[C@H]2O)CC[C@]2(C)[C@H]3CC[C@]45OC[C@@]6(CC[C@](C)(C=O)C[C@H]64)[C@H](O)C[C@@]5(C)[C@]3(C)CC[C@@H]12` [CYCLAMIN], the MIC in experiment [6], in experiment [8], in [9] and in [11] was > 400 µg/mL in each case. In addition, in experiment [14], the Activity worked out at 48.4%.
In the case of `CC1(C)[C@@H](O[C@@H]2OC[C@H](O[C@@H]3O[C@H](CO)[C@@H](O)[C@H](O)[C@H]3O[C@@H]3OC[C@H](O)[C@H](O)[C@H]3O)[C@H](O)[C@H]2O[C@@H]2O[C@H](CO)[C@@H](O)[C@H](O)[C@H]2O)CC[C@]2(C)[C@H]3CC[C@]45OC[C@@]6(CC[C@](C)(C=O)C[C@H]64)[C@H](O)C[C@@]5(C)[C@]3(C)CC[C@@H]12` [DEGLUCOCYCLAMIN], the MIC in [1] was 160 µg/mL (≈ 151 µM); in experiment [2] it was 80 µg/mL (≈ 75.4 µM); in [3], > 320 µg/mL; in experiment [4], 160 µg/mL (≈ 151 µM); in experiment [6], > 400 µg/mL; in experiment [7] it was 160 µg/mL (≈ 151 µM). In addition, the MIC was > 400 µg/mL in experiment [8]; > 400 µg/mL in [9]; 160 µg/mL (≈ 151 µM) in experiment [10]; > 400 µg/mL in [11]; 80 µg/mL (≈ 75.4 µM) in experiment [12]. The Activity in experiment [15] is 36.7%.
Turning to `CC1(C)[C@@H](O[C@@H]2OC[C@H](O[C@@H]3O[C@H](CO[C@@H]4O[C@H](CO)[C@@H](O)[C@H](O)[C@H]4O)[C@@H](O)[C@H](O)[C@H]3O[C@@H]3OC[C@H](O)[C@H](O)[C@H]3O)[C@H](O)[C@H]2O[C@@H]2O[C@H](CO)[C@@H](O)[C@H](O)[C@H]2O)CC[C@]2(C)[C@H]3CC[C@]45OC[C@@]6(CC[C@](C)(C=O)C[C@H]64)[C@H](O)C[C@@]5(C)[C@]3(C)CC[C@@H]12` [ISOCYCLAMIN], the Activity came to 28.3% in experiment [16] and 0.1% in experiment [14]. Also, the MIC in [6], in experiment [8], in [9] and in experiment [11] was > 400 µg/mL each time.
For the compound `CC1(C)[C@@H](O[C@@H]2OC[C@H](O[C@@H]3O[C@H](CO[C@@H]4O[C@H](CO)[C@@H](O)[C@H](O)[C@H]4O)[C@@H](O)[C@H](O)[C@H]3O[C@@H]3OC[C@H](O)[C@H](O)[C@H]3O)[C@H](O)[C@H]2O[C@@H]2O[C@H](CO)[C@@H](O)[C@H](O)[C@H]2O)CC[C@]2(C)[C@H]3CC=C4[C@@H]5C[C@]6(C)CC[C@]5(COC6=O)[C@H](O)C[C@@]4(C)[C@]3(C)CC[C@@H]12` [MIRABILIN LACTONE], the Activity in experiment [16] turned out to be 5.7%; in experiment [14], 0.6%. Besides, the MIC in [6], in [8], in experiment [9] and in experiment [11] was > 400 µg/mL each time.
For `CC1(C)[C@@H](O[C@@H]2OC[C@H](O[C@@H]3O[C@H](CO[C@@H]4O[C@H](CO)[C@@H](O)[C@H](O)[C@H]4O)[C@@H](O)[C@H](O)[C@H]3O[C@@H]3OC[C@H](O)[C@H](O)[C@H]3O)[C@H](O)[C@H]2O[C@@H]2O[C@H](CO)[C@@H](O)[C@H](O)[C@H]2O)CC[C@]2(C)[C@H]3CC=C4[C@@H]5C[C@@](C)(C(=O)O)CC[C@]5(CO)[C@H](O)C[C@@]4(C)[C@]3(C)CC[C@@H]12` [MIRABILIN], the MIC in [6], in [8], in experiment [9] and in [11] was > 400 µg/mL in each case. Further, the values for the Activity in [17] and in experiment [18] were 0.7% and 1.1%, respectively.

Values taken from ChEMBL document CHEMBL1145722, “Triterpene saponins from Cyclamen mirabile and their biological activities” (1997).
